What follows are molecules tested on phospho-p90 RSK (RSK1 Thr359/Ser363) in A375 (Braf V600E) cells (assay: Phospho-p90 RSK ELISA using A375 (Braf V600E) cells). Settings: Homo sapiens, A-375, 2 hours compound treatment, read-out: Cellular Phospho-p90RSK IC50.
Assay type: cell-based
Procedure: In preparation for the assay, an ELISA plate with the pre-coated goat anti-mouse antibody (Thermo Scientific) was treated with a mouse anti-human RSK1 antibody (monoclonal, Invitrogen) at 1:800 dilution (150 ng/well) in PBS, and the plate was placed on a plate shaker at 4° C. overnight. […] After two […] of the compound treatment, the supernatant was removed from the cell plate, and cells were lysed in 100 μl per well of cell lysis buffer (Cell Signaling Technologies) containing phosphatase and protease inhibitors (Cell Signaling Technologies) on a plate shaker at 4° C. for 20 minutes. The ELISA plate was washed four times with ELISA wash buffer (Thermo Scientific) prior to addition of 100 μL cell lysate. The lysate was incubated on the ELISA plate with gentle shaking at room temperature for 2 hours. The contents of the wells were removed, and the ELISA plate was washed four times with wash buffer, and incubated with 100 μL per well of anti-phospho-RSK1 (Thr359/Ser363) rabbit monoclonal antibody (Millipore) at dilution of 1:1000 in StartingBlock buffer (Thermo Scientific) on a plate shaker at room temperature for 1 hour. The contents of the wells were removed, the ELISA plate was washed four times with wash buffer, and was incubated with 100 μL per well of goat anti-rabbit HRP (Thermo Scientific) at dilution of 1:3000 in StartingBlock buffer (Thermo Scientific) on a plate shaker at room temperature for 1 hour. The contents of the wells were removed, the ELISA plate was washed four times with wash buffer, and then incubated with 100 μL per well of TMB substrate solution (Thermo Scientific) on a plate shaker at room temperature for 20 minutes. Finally, 100 μL of TMB stop solution (Thermo Scientific) was added to each well and the absorbance is measured at 450 nm on a Tecan plate reader.

SMILES	IC50
Cn1cc(-c2n[nH]c3cc4c(cc23)CN([C@@H]2CCCN(Cc3cccs3)C2)C(=O)N4)cn1 [Example 298]	≤ 250 nM
CN(C)CCN1CCN(c2n[nH]c3cc4c(cc23)CN(Cc2ccc(F)c(Cl)c2)C(=O)N4)CC1 [Example 260]	> 1000 nM
Cc1cc(-c2n[nH]c3cc4c(cc23)CN([C@@H]2CCCN(Cc3cc(C5CC5)on3)C2)C(=O)N4)ccn1 [Example 188]	≤ 250 nM
Cc1cc(-c2n[nH]c3cc4c(cc23)CN(Cc2ccccc2Cl)C(=O)N4)ccn1 [Example 217]	≤ 250 nM
C[C@H](c1ccc(Cl)cc1)N1Cc2cc3c(-c4ccnnc4)n[nH]c3cc2NC1=O [Example 115]	250 to 1000 nM
Cc1cc(-c2n[nH]c3cc4c(cc23)CN([C@@H]2CCN(C)C2)C(=O)N4)ccn1 [Example 255]	> 1000 nM
Cc1cc(-c2n[nH]c3cc4[nH]c(=O)c(C5CCCN(Cc6cc(F)ccc6F)C5)cc4cc23)ccn1 (stereo not drawn) [Example 336]	≤ 250 nM
Cc1cc(-c2n[nH]c3cc4c(cc23)CN(Cc2ccccc2C(F)(F)F)C(=O)N4)ccn1 [Example 218]	250 to 1000 nM
Cc1cc(-c2n[nH]c3cc4c(cc23)CN(Cc2ccc(C(F)(F)F)cc2)C(=O)N4)cc(C)n1 [Example 233]	≤ 250 nM
Cc1cc(-c2n[nH]c3cc4c(cc23)CN([C@@H]2CCCN(Cc3ccccn3)C2)C(=O)N4)ccn1 [Example 171]	> 1000 nM
Cc1cc(-c2n[nH]c3cc4c(cc23)CN(CCN)C(=O)N4)ccn1 [Example 83]	> 1000 nM
O=C1Nc2cc3[nH]nc(-c4ccncc4)c3cc2CN1[C@@H]1CN(CC(F)(F)F)C[C@H]1c1ccccc1 [Example 342]	≤ 250 nM
O=C1Nc2cc3[nH]nc(-c4ccnnc4)c3cc2CN1Cc1cc(F)cc(F)c1 [Example 127]	250 to 1000 nM
Cc1cc(-c2n[nH]c3cc4c(cc23)CN([C@H]2CN(CC(F)(F)F)C[C@@H]2c2ccccc2)C(=O)N4)ccn1 [Example 303]	> 1000 nM
COc1cc(-c2n[nH]c3cc4[nH]c(=O)c(C5CCCN(Cc6ccccc6)C5)cc4cc23)ccn1 (stereo not drawn) [Example 370]	≤ 250 nM
COc1ncc(-c2n[nH]c3cc4c(cc23)CN([C@H](CO)c2cccc(Cl)c2)C(=O)N4)cn1 [Example 118]	≤ 250 nM
Cc1ccc(-c2n[nH]c3cc4c(cc23)CN([C@@H]2CCN(CC(F)(F)F)C2)C(=O)N4)cn1 [Example 274]	≤ 250 nM
O=C1Nc2cc3[nH]nc(-c4ccnnc4)c3cc2CN1Cc1ccc(F)cc1F [Example 114]	250 to 1000 nM
COc1ncc(-c2n[nH]c3cc4c(cc23)CN([C@@H]2CN(CC(F)(F)F)C[C@H]2c2ccccc2)C(=O)N4)cn1 [Example 348]	≤ 250 nM
Cc1cc(-c2n[nH]c3cc4c(cc23)CN([C@@H]2CN(CC(F)(F)F)C[C@H]2C(C)(C)C)C(=O)N4)ccn1 [Example 329]	> 1000 nM
O=C1Nc2cc3[nH]nc(-c4ccc5nncn5c4)c3cc2CN1Cc1cccc(Cl)c1 [Example 59]	> 1000 nM

SMILES	IC50
Cc1cc(-c2n[nH]c3cc4c(cc23)CN([C@@H]2CCC[C@@H](NCc3ccccc3)C2)C(=O)N4)ccn1 [Example 313]	250 to 1000 nM
Cc1cnccc1-c1n[nH]c2cc3[nH]c(=O)c(C(C)c4ccccc4)cc3cc12 (stereo not drawn) [Example 343]	> 1000 nM
Cc1cc(-c2n[nH]c3cc4c(cc23)CN([C@@H]2CCCN(CCC(C)C)C2)C(=O)N4)ccn1 [Example 169]	250 to 1000 nM
Cc1cc(-c2n[nH]c3cc4c(cc23)CN([C@H]2CN(C)C[C@@H]2c2ccccc2)C(=O)N4)cc(C)n1 [Example 307]	250 to 1000 nM
COc1ncc(-c2n[nH]c3cc4c(cc23)CN([C@H](C)c2ccc(Cl)cc2)C(=O)N4)cn1 [Example 95]	250 to 1000 nM
Cn1nccc1-c1n[nH]c2cc3c(cc12)CN([C@@H]1CN(CC(F)(F)F)C[C@H]1c1ccccc1)C(=O)N3 [Example 350]	> 1000 nM
Cc1cc(-c2n[nH]c3cc4[nH]c(=O)c(Cc5ccccc5)cc4cc23)ccn1 [Example 6]	≤ 250 nM
Cc1cc(-c2n[nH]c3cc4c(cc23)CN(C(C)CC(C)C)C(=O)N4)ccn1 (stereo not drawn) [Example 53]	250 to 1000 nM
Cc1cc(-c2n[nH]c3cc4c(cc23)CN([C@@H]2CCCN(Cc3cnn(C)c3)C2)C(=O)N4)ccn1 [Example 133]	> 1000 nM
Cc1cc(-c2n[nH]c3cc4c(cc23)CN([C@@H]2CN(CC(F)(F)F)C[C@H]2c2ccc(F)cc2)C(=O)N4)ccn1 (racemic) [Example 300]	≤ 250 nM
Cc1ccc(-c2n[nH]c3cc4[nH]c(=O)c(C5CCCN(Cc6ccccc6)C5)cc4cc23)cn1 (stereo not drawn) [Example 373]	250 to 1000 nM
Cc1cc(-c2n[nH]c3cc4c(cc23)CN([C@H]2CN(CC(F)F)C[C@@H]2c2ccccc2)C(=O)N4)cc(C)n1 [Example 385]	> 1000 nM
Cc1cc(-c2n[nH]c3cc4c(cc23)CN([C@@H]2CCCN(CC3(C)CC3)C2)C(=O)N4)ccn1 [Example 182]	250 to 1000 nM
CC(c1ccccc1)c1cc2cc3c(-c4ccnc(N)c4)n[nH]c3cc2[nH]c1=O (stereo not drawn) [Example 344]	≤ 250 nM
CC(C)c1cc(-c2n[nH]c3cc4c(cc23)CN(Cc2cccc(Cl)c2)C(=O)N4)ccn1 [Example 230]	250 to 1000 nM
Cc1cc(-c2n[nH]c3cc4c(cc23)CN([C@@H]2CN(CC(F)(F)F)C[C@H]2C(C)C)C(=O)N4)ccn1 (mixture of isomers) [Example 322]	250 to 1000 nM
O=C1Nc2cc3[nH]nc(-c4ccnnc4)c3cc2CN1CCc1ccc(F)cc1 [Example 110]	250 to 1000 nM
Cn1nccc1-c1n[nH]c2cc3c(cc12)CN(Cc1cccc(Cl)c1)C(=O)N3 [Example 235]	> 1000 nM
CC(c1ccccc1)c1cc2cc3c(N4CCN(C)CC4)n[nH]c3cc2[nH]c1=O (stereo not drawn) [Example 358]	> 1000 nM
Cc1cc(-c2n[nH]c3cc4c(cc23)CN([C@@H]2CCCN(Cc3cncnc3)C2)C(=O)N4)ccn1 [Example 166]	> 1000 nM
Cc1cc(-c2n[nH]c3cc4c(cc23)CN([C@H]2CN(C(C)C)C[C@@H]2c2ccccc2)C(=O)N4)ccn1 [Example 296]	> 1000 nM

SMILES	IC50
COc1ncc(-c2n[nH]c3cc4c(cc23)CN([C@@H]2CN(C)C[C@H]2c2ccccc2)C(=O)N4)cn1 (mixture of isomers) [Example 355]	250 to 1000 nM
Cc1cc(-c2n[nH]c3cc4c(cc23)CN(CCNCc2ccc(F)c(Cl)c2)C(=O)N4)ccn1 [Example 173]	> 1000 nM
Cc1cc(-c2n[nH]c3cc4c(cc23)CN([C@@H]2CNC[C@H]2c2ccccc2)C(=O)N4)ccn1 (racemic) [Example 223]	250 to 1000 nM
COc1ncc(-c2n[nH]c3cc4c(cc23)CN([C@H]2CCCN(Cc3ccccc3)C2)C(=O)N4)cn1 [Example 365]	> 1000 nM
Cc1cc(-c2n[nH]c3cc4c(cc23)CN(C(C)c2nc(C)c(C)s2)C(=O)N4)ccn1 (stereo not drawn) [Example 286]	≤ 250 nM
Cc1cc(-c2n[nH]c3cc4c(cc23)CN(CCNCc2ccc(F)cc2)C(=O)N4)ccn1 [Example 175]	250 to 1000 nM
Cc1cc(-c2n[nH]c3cc4c(cc23)CN([C@@H]2CCCN(Cc3ccc(Cl)cc3)C2)C(=O)N4)ccn1 [Example 159]	250 to 1000 nM
Cc1cc(-c2n[nH]c3cc4c(cc23)CN([C@@H]2CCCN(Cc3cccnc3C)C2)C(=O)N4)ccn1 [Example 170]	250 to 1000 nM
Cc1cc(-c2n[nH]c3cc4c(cc23)CN([C@@H]2CCCN(Cc3ncccc3C)C2)C(=O)N4)ccn1 [Example 168]	250 to 1000 nM
Cc1cc(-c2n[nH]c3cc4c(cc23)CN([C@@H]2CCCN(c3cccc(C)n3)C2)C(=O)N4)ccn1 [Example 238]	≤ 250 nM
Cc1cc(-c2n[nH]c3cc4c(cc23)CN([C@@H]2CN(CC(F)F)C[C@H]2c2ccccc2)C(=O)N4)cc(C)n1 [Example 386]	≤ 250 nM
O=C1Nc2cc3[nH]nc(-c4cccnc4)c3cc2CN1[C@@H]1CN(CC(F)(F)F)C[C@H]1c1ccccc1 [Example 341]	≤ 250 nM
Cc1cc(-c2n[nH]c3cc4c(cc23)CN([C@@H]2CCC[C@H](NCc3ccccc3)C2)C(=O)N4)ccn1 [Example 177]	250 to 1000 nM
Cc1cc(-c2n[nH]c3cc4c(cc23)CN([C@@H]2CCCN(CC3CC5CCC3C5)C2)C(=O)N4)ccn1 (stereo partly drawn) [Example 142]	≤ 250 nM
Cc1cc(-c2n[nH]c3cc4c(cc23)CN([C@@H]2CCCN(Cc3sc(C)nc3C)C2)C(=O)N4)ccn1 [Example 195]	250 to 1000 nM
Cc1cc(-c2n[nH]c3cc4c(cc23)CN([C@@H]2CCCN(CC3CCC3)C2)C(=O)N4)ccn1 [Example 137]	250 to 1000 nM
Cc1cc(-c2n[nH]c3cc4c(cc23)CN([C@@H]2CCN(C(C)C)C2)C(=O)N4)ccn1 [Example 268]	> 1000 nM
Cc1cc(-c2n[nH]c3cc4c(cc23)CN(CC2CC2)C(=O)N4)ccn1 [Example 258]	≤ 250 nM
O=C1Nc2cc3[nH]nc(-c4cccnc4)c3cc2CN1Cc1cccc(Cl)c1 [Example 57]	≤ 250 nM
O=C1Nc2cc3[nH]nc(-c4ccc(=O)[nH]c4)c3cc2CN1Cc1cccc(Cl)c1 [Example 61]	> 1000 nM
Cc1ncccc1-c1n[nH]c2cc3[nH]c(=O)c(C(C)c4ccccc4)cc3cc12 (stereo not drawn) [Example 335]	> 1000 nM

From patent US10301317B2, “Inhibitors of ERK and methods of use” (Kura Oncology, Inc., priority 2013, dated 2019)
